# Test results taken from patent US7166744B2, “Retinoid derivatives and methods for producing said compounds and anti-cancer pharmaceutical composition comprising said compounds” (Chebigen Co., Ltd., priority 2001, dated 2007).
# Test system: colon cancer cells
# Assay: MTT proliferation assay, colon cancer cells (Table 1)
# Format: cell-based
# Settings: 48 hours, concentration required for 50% growth inhibition, read-out: IC50, activities of various retinoid derivatives in colon cancer cells
# Experimental: The effects of test compounds on proliferation of various cancer cells was examined by 3-(4,5-dimethylthiazol-2-yl)-2,5-diphenyltetrazolium bromide (MTT, Sigma) assay in a dose dependent manner. In the MTT assay, colon, liver, cervix, ovary, and breast cancer cell lines were treated with test compounds at various concentrations. Living cancer cells reduce MTT to dark blue MTT formazan that would be measured by absorbance.
# Colon cancer cells, HCT116, DLD-1 and HT29, cervix cancer cells, HeLa and CaSki, ovary cancer cells, SKOV-3, 2774 and OVCAR-3, liver cancer cells, SK-Hep-1, PLCPRF5 and HepG2, and breast cancer cells, ZR75-1 and MDA-MB 231 were seeded at an initial density of 3000 cells per well in 96-well plates. After attachment of cells to the walls of the wells, the medium containing fresh retinoid was treated with various concentrations (0.5 μM, 1 μM, 2.5 μM, 5 μM, 10 μM) for 48 hours. 50 μl of MTT solution (2 mg/ml in PBS) was added to cell culture media. The reaction micture was incubated at 37° C. in a 5% CO2 atmosphere for 4 hours. The supernatant was removed and 150 μl of DMSO was added. The optical density was measured spectrophotometrically at 550 nm. […] For other retinoid derivatives according to the present invention, absorbances were measured by this procedure and IC50 values, concentrations required for 50% growth inhibition, were determined.
row,Compound,IC50 [µM]
1,"CCCC(=O)Oc1cc(NC(=O)/C=C(C)/C=C/C=C(C)/C=C/C2=C(C)CCCC2(C)C)ccc1O [KCBG35, 5-(2E,4E,6E,8E)-[3,7-dimethyl-9-(2,6,6-trimethylcyclohex-1-enyl)-nona-2,4,6,8-tetraenoylamino]-2-hydroxyphenylbutanoate]",2
2,"CCC(=O)Oc1cc(O)ccc1NC(=O)/C=C(C)/C=C/C=C(C)/C=C/C1=C(C)CCCC1(C)C [KCBG15, 2-[(2E,4E,6E,8E)-3,7-dimethyl-9-(2,6,6-trimethylcyclohex-1-enyl)-nona-2,4,6,8-tetraenoylamino]-5-hydroxyphenylpropionate]",8
3,"CC(=O)C(=O)Oc1ccc(NC(=O)/C=C(C)/C=C/C=C(C)/C=C/C2=C(C)CCCC2(C)C)cc1 [KCBG45, 4-[(2E,4E,6E,8E)-3,7-dimethyl-9-(2,6,6-trimethyl-1-cyclohexenyl)-2,4,6,8-nonatetraenoyl]aminophenyl-2-oxopropanoate]",7
4,"CCCC(=O)Oc1ccc(NC(=O)/C=C(C)/C=C/C=C(C)/C=C/C2=C(C)CCCC2(C)C)cc1OC(=O)CCC [KCBG34, 2-Butyryloxy-5-(2E,4E,6E,8E)-[3,7-dimethyl-9-(2,6,6-trimethylcyclohex-1-enyl)-nona-2,4,6,8-tetraenoylamino]phenylbutanoate]",3
5,"CC1=C(/C=C/C(C)=C/C=C/C(C)=C/C(=O)Nc2ccc(OC(=O)CCCCCCC(=O)O)cc2)C(C)(C)CCC1 [KCBG54, 4-(4-[(2E,4E,6E,8E)-3,7-dimethyl-9-(2,6,6-trimethyl-1-cyclohexenyl)-2,4,6,8-nonatetraenoyl]aminophenoxy)-oxo-octanedionic acid]",3.5
6,"4-(4-[(2E,4E,6E,8E)-3,7-dimethyl-9-(2,6,6-trimethyl-1-cyclohexenyl)-2,4,6,8-nonatetraenoyl]aminophenoxy)-oxo-heptanedioic acid [KCBG53]",6.5
7,"CCC(=O)C(=O)Oc1ccc(NC(=O)/C=C(C)/C=C/C=C(C)/C=C/C2=C(C)CCCC2(C)C)cc1 [KCBG47, 4-[(2E,4E,6E,8E)-3,7-dimethyl-9-(2,6,6-trimethyl-1-cyclohexenyl)-2,4,6,8-nonatetraenoyl]aminophenyl-2-oxobutanoate]",1.8
8,"CCCCS(=O)(=O)Oc1ccc(NC(=O)/C=C(C)/C=C/C=C(C)/C=C/C2=C(C)CCCC2(C)C)cc1 [KCBG43, 4-[(2E,4E,6E,8E)-3,7-dimethyl-9-(2,6,6-trimethyl-1-cyclohexenyl)-2,4,6,8-nonatetraenoyl]aminophenyl-1-butanesulfonate]",4
9,"CCCC(=O)Nc1cc(NC(=O)/C=C(C)/C=C/C=C(C)/C=C/C2=C(C)CCCC2(C)C)ccc1OC(=O)CCC [KCBG42, 2-Butyrylamino-4-(2E,4E,6E,8E)-[3,7-dimethyl-9-(2,6,6-trimethylcyclohex-1-enyl)-nona-2,4,6,8-tetraenoylamino]-phenylbutanoate]",7
10,"4-(4-[(2E,4E,6E,8E)-3,7-dimethyl-9-(2,6,6-trimethyl-1-cyclohexenyl)-2,4,6,8-nonatetraenoyl]aminophenoxy)-4-oxobutanoic acid [KCBG32]",5
11,"CCCC(=O)Nc1ccc(NC(=O)/C=C(C)/C=C/C=C(C)/C=C/C2=C(C)CCCC2(C)C)cc1 [KCBG40, (2E,4E,6E,8E)-[3,7-dimethyl-9-(2,6,6-trimethylcyclohex-1-enyl)-nona-2,4,6,8-tetraenoylamino]-(4-butyrylamino)phenylamide]",0.6

# More lines, now with the values ahead:
row,IC50 [µM],Compound
1,10 to 20,"CCCC(=O)Oc1ccc(NC(=O)C=C(C)C=CC=C(C)C=CC2=C(C)CCCC2(C)C)c(OC(=O)CCC)c1 [KCBG09, 5-Butyryloxy-2-[3,7-dimethyl-9-(2,6,6-trimethylcyclohex-1-enyl)-nona-2,4,6,8-tetraenoylamino]-phenylbutanoate]"
2,3,"CC1=C(/C=C/C(C)=C/C=C/C(C)=C/C(=O)Nc2ccc(O)cc2OC(=O)CC(C)O)C(C)(C)CCC1 (stereo not drawn) [KCBG39, 2-[(2E,4E,6E,8E)-3,7-dimethyl-9-(2,6,6-trimethylcyclohex-1-enyl)-nona-2,4,6,8-tetraenoylamino]-5-hydroxyphenyl-3-hydroxybutanoate]"
3,2,"CCC(=O)C(=O)Oc1cc(O)ccc1NC(=O)/C=C(C)/C=C/C=C(C)/C=C/C1=C(C)CCCC1(C)C [KCBG38, 2-[(2E,4E,6E,8E)-3,7-dimethyl-9-(2,6,6-trimethylcyclohex-1-enyl)-nona-2,4,6,8-tetraenoylamino]-5-hydroxyphenyl 2-oxobutanoate]"
4,3.5,"2-[(2E,4E,6E,8E)-3,7-Dimethyl-9-(2,6,6-trimethylcyclohex-1-enyl)-nona-2,4,6,8-tetraenoylamino]-5-hydroxyphenyl(dimethylamino)acetate [KCBG23]"
5,4.5,"4-(4-[(2E,4E,6E,8E)-3,7-dimethyl-9-(2,6,6-trimethyl-1-cyclohexenyl)-2,4,6,8-nonatetraenoyl]aminophenoxy)-oxo-hexanedioic acid [KCBG51]"
6,> 100,"CC1=C(/C=C/C(C)=C/C=C/C(C)=C/C(=O)Nc2ccc(O)cc2O)C(C)(C)CCC1 [KCBG08, (2E,4E,6E,8E)-[3,7-dimethyl-9-(2,6,6-trimethylcyclohex-1-enyl)-nona-2,4,6,8-tetraenoyl]-(2,4-dihydroxy)phenylamide]"
7,6,"CC(=O)C(=O)Oc1cc(O)ccc1NC(=O)/C=C(C)/C=C/C=C(C)/C=C/C1=C(C)CCCC1(C)C [KCBG22, 2-[(2E,4E,6E,8E)-3,7-dimethyl-9-(2,6,6-trimethylcyclohex-1-enyl)-nona-2,4,6,8-tetraenoylamino]-5-hydroxyphenyl-2-oxopropionate]"
8,7,"CC(=O)NC(CCC(N)=O)C(=O)Oc1ccc(NC(=O)/C=C(C)/C=C/C=C(C)/C=C/C2=C(C)CCCC2(C)C)cc1 (stereo not drawn) [KCBG52, 4-[(2E,4E,6E,8E)-3,7-dimethyl-9-(2,6,6-trimethylcyclohex-1-enyl)-nona-2,4,6,8-tetraenoylamino]phenyl-2-acetylamino-4-carbamoylbutanoate]"
9,5.5,"CC1=C(/C=C/C(C)=C/C=C/C(C)=C/C(=O)Nc2ccc(OC(=O)CCC(=O)O)cc2)C(C)(C)CCC1 [KCBG50, 4-(4-[(2E,4E,6E,8E)-3,7-dimethyl-9-(2,6,6-trimethyl-1-cyclohexenyl)-2,4,6,8-nonatetraenoyl]aminophenoxy)-4-oxobutanoic acid]"

# Test system: MMP-3 mRNA expression
# Assay: RT-PCR of MMP-3 mRNA in HCT116
# Format: cell-based
# Settings: HCT116, 1 μM, 36 hours
# Experimental: (§1) Previously, it was shown that the synthetic retinoid derivatives inhibit the transcriptional activity of AP-1. Also, it is well known that MMP (matrix metalloproteinase), a main target gene of AP-1 is involved in metastasis of cancer cells. Therefore, the inhibitive effects of the retinoid derivatives on metastasis of cancer was examined by RT-PCR analysis. Colon cancer HCT116 cells were treated with 1 μM retinoid for 36 hours. RNA was isolated from the cells and mRNA expression levels of MMP-1, -2 and -3 were analyzed by RT-PCR. […] As the control, GAPDH was used and it was confirmed that its expression was not affected by retinoid. Meanwhile, the expression level of MMP-3 was affected weakly by KCBG40, intermediately by KCBG41 but strongly by KCBG10 (FIG. 9).
row,Compound,effect on MMP-3 mRNA expression level
1,"CCCC(=O)Nc1ccc(NC(=O)/C=C(C)/C=C/C=C(C)/C=C/C2=C(C)CCCC2(C)C)cc1 [KCBG40, (2E,4E,6E,8E)-[3,7-dimethyl-9-(2,6,6-trimethylcyclohex-1-enyl)-nona-2,4,6,8-tetraenoylamino]-(4-butyrylamino)phenylamide]",weakly

# Test system: HCT116 colon cancer cells
# Assay: DAPI staining of nuclei, HCT116
# Format: cell-based
# Settings: HCT116, 5 μM, 36 h
# Experimental: By DAPI (4,6-diamidino-2-phenylindole) staining assay for staining DNA in cellular nucleus, nuclear condensation and fragmentation, characteristic features of apoptosis, were observed. […] In FIG. 4, the control represents non-treated cells. The sub-G1 DNA contents of colon cancer HTC116 cells and breast cancer MCF-7 cells were measured by FACS (Fluorescence-Activated Cell Sorter) assay to quantify the apoptosis (FIG. 5). Finally, in order to further characterize the apoptosis observed in retinoid derivative-treated cells, the cleavage of apoptosis-related proteins, including PARP (poly(ADP-ribose)polymerase) and CPP32 (caspase-3) by Western blotting. […] PARP cleavage occurred in a time-dependent manner, in parallel with the induction of apoptosis (FIG. 6B). C in FIG. 6 represents the result of Western blotting of non-treated cells.
# Meanwhile, HPR which is a precursor during the synthesis process of KCBG60 is known to induce apoptosis. Considering that the cells aggregated into small spherical mass upon treatment with KCBG60, KCBG60 is expected to induce apoptosis. In order to confirm apoptosis induced by KCBG60 once again, KCBG60-treated HCT116 cells were stained with DAPI and observed for nuclear condensation, an indicative of apoptosis (FIG. 12).
row,Compound,nuclear condensation and fragmentation (DAPI)
1,"CCCC(=O)Nc1ccc(NC(=O)/C=C(C)/C=C/C=C(C)/C=C/C2=C(C)CCCC2(C)C)cc1 [KCBG40, (2E,4E,6E,8E)-[3,7-dimethyl-9-(2,6,6-trimethylcyclohex-1-enyl)-nona-2,4,6,8-tetraenoylamino]-(4-butyrylamino)phenylamide]",largely showed nuclear fragmentation

# Test system: MMP-2 mRNA expression
# Assay: RT-PCR of MMP-2 mRNA in HCT116
# Format: cell-based
# Settings: HCT116, 1 μM, 36 hours
# Experimental: as §1
# (§2) RNA was isolated from the cells and mRNA expression levels of MMP-1, -2 and -3 were analyzed by RT-PCR (FIG. 14).
row,Compound,inhibition of MMP-2 mRNA expression
1,"CCCC(=O)Nc1ccc(NC(=O)/C=C(C)/C=C/C=C(C)/C=C/C2=C(C)CCCC2(C)C)cc1 [KCBG40, (2E,4E,6E,8E)-[3,7-dimethyl-9-(2,6,6-trimethylcyclohex-1-enyl)-nona-2,4,6,8-tetraenoylamino]-(4-butyrylamino)phenylamide]",affected very little

# Test system: MMP-1 mRNA expression
# Assay: RT-PCR of MMP-1 mRNA in HCT116
# Format: cell-based
# Settings: HCT116, 1 μM, 36 hours
# Experimental: as §1, §2
row,Compound,inhibition of MMP-1 mRNA expression
1,"CCCC(=O)Nc1ccc(NC(=O)/C=C(C)/C=C/C=C(C)/C=C/C2=C(C)CCCC2(C)C)cc1 [KCBG40, (2E,4E,6E,8E)-[3,7-dimethyl-9-(2,6,6-trimethylcyclohex-1-enyl)-nona-2,4,6,8-tetraenoylamino]-(4-butyrylamino)phenylamide]",affected very little
